Reference: US20220193072A1, “METHODS OF TREATING BREAST CANCER WITH TETRAHYDRONAPHTHALENE DERIVATIVES AS ESTROGEN RECEPTOR DEGRADER” (Arvinas Operations, Inc., priority 2020, published 2022)
“And” between values parts separate entries of the source, which are not always exact repeats. Equal entries are not always repeated.

Biological target: T1, ERα (Homo sapiens, UniProt P03372)
T1 construct: robustly degrades ER in ER-positive breast cancer cell lines; endogenous in cells; host or cells: MCF7, T47D (cell culture); MCF7 and tamoxifen-resistant MCF7 xenograft tumours in mice
T1 sequence (P03372 1-595): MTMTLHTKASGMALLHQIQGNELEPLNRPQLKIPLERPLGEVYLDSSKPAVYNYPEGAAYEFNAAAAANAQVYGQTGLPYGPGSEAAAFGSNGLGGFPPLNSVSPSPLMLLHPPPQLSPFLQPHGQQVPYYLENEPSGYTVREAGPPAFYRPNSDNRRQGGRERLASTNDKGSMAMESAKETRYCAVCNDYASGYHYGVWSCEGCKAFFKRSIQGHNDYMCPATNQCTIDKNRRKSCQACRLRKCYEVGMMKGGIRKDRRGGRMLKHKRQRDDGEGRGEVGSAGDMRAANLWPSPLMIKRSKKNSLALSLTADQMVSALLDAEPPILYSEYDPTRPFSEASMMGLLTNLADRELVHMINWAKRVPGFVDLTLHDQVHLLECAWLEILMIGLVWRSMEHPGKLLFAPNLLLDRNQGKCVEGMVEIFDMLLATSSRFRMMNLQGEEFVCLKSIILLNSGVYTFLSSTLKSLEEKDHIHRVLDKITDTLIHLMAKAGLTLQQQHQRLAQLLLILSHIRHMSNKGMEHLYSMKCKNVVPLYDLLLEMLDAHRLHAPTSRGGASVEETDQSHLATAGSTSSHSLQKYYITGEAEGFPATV
Assay: In vivo ERα degradation in MCF7 xenograft tumors (immunoblot)
Set-up: species or system NOD/SCID mice
Conditions: for % ERα ↓: MCF7/estradiol model
Method: Approximately 18 hours after the final administration, mice were sacrificed, and MCF7 xenografts were harvested and lysed to determine ER levels by immunoblotting. […] Diet was supplemented with peanut butter to help maintain body weights.
Species: NOD/SCID female mice (Charles River, 6-7 weeks old upon arrival).
Animal handling: Axial mammary fat pad implantation of 5×10^6 MCF7 cells/200 per mouse (17β-estradiol 0.36 mg 90-day pellet implanted day before).
Dosing: Oral (gavage), once a day (QD) for 3 days (QD×3). Vehicle: 2% Tween80/PEG400 (‘PEG/Tween’).
Sampling: Terminal sacrifice was ˜18 hrs after last dose; tumors were harvested, divided and flash frozen. ERα levels were determined by immunoblotting.
Cell Lysis: flash frozen tumors were removed from −80° C. storage and placed on dry ice. RIPA lysis buffer and Halt protease inhibitors were used at 400 μl per tumor sample. A steel ball (5 mm) was placed in each sample for tissue disruption. Samples were lysed with TissueLyzer at 24 Hz for 4 minutes. The homogenization was stopped half way through the process and the block flipped over for the duration of the process. Steel beads were pulled out of the tubes and the lysates were spun down at 21,000×g for 15 minutes at 4° C. Lysates were then measured for total protein concentration by BCA (per manufacturer's protocol).
Detection of proteins by immunoblot: lysates were mixed with sample buffer and reducing agent (per manufacturer's protocol). Samples were denatured at 95° C. for 5 minutes in thermal cycler. Samples were cooled and spun down (5000×g; 1 minute) prior to loading on gel. Gels were loaded with 10 μg total protein per lane. Samples were loaded on 4-15% Criterion Tris/Glycine gels and run for 25 minutes at 250 constant volts in 1×Tris/Glycine/SDS buffer. Protein was transferred from gels to nitrocellulose with Bio-Rad Turbo on default setting. All blots were rinsed with distilled water and blocked for 1 hour at RT in 5% BSA in TBS-T (TBS with 0.1% Tween) on rocker. The blots were cut so that beta-actin and ERα can be detected from the same lane/sample.
Blots were incubated with primary antibody in 5% BSA in TBST (0.1%) overnight at 4° C. on rocker:
Blot was washed with TBST (0.1%) three times for 5 minutes on rocker at RT. Secondary antibody was added, and blots incubated at RT on rocker for 1 hour (1:18,000 anti-rabbit-HRP in TBS-T). Blots were washed 3 times in TBST (0.1%) for 5 minutes at RT on the rocker. Signal was developed with Pierce WestFemto maximum sensitivity substrate for 5 minutes and blots imaged on BioRad ChemiDoc.
Sampling: Tumors were measured twice weekly. Terminal sacrifice was ˜18 hr after last dose; tumors were harvested, divided, and flash frozen. ERα levels were determined by immunoblotting.
At study termination, the tumors were removed from the mice, and ERα levels were determined by immunoblotting the tumor homogenates.
Sampling: tumors were measured twice weekly. Terminal sacrifice was ˜18 hr after last dose; tumors were harvested, divided, and flash frozen. ERα levels were determined by immunoblotting.

Compound: O=C1CC[C@H](N2Cc3cc(N4CCN(CC5CCN(c6ccc([C@@H]7c8ccc(O)cc8CC[C@@H]7c7ccccc7)cc6)CC5)CC4)ccc3C2=O)C(=O)N1 [Compound (I-c), (3S)-3-[5-[4-[[1-[4-[(1R,2S)-6-hydroxy-2-phenyl-tetralin-1-yl]phenyl]-4-piperidyl]methyl]piperazin-1-yl]-1-oxo-isoindolin-2-yl]piperidine-2,6-dione]
- reduction of tumor ERα levels vs vehicle (10 mg/kg p.o. once daily x 3 days, ~18 h after last dose): up to 95%
- reduction of tumor ERα levels vs vehicle (3, 10 and 30 mg/kg daily oral, 28 days (all doses), at study termination): > 94% and > 90%
- % ERα ↓ (3 mg/kg): 95%
- % ERα ↓ (10 mg/kg): 97%
- % ERα ↓ (30 mg/kg): 94%
